The values below are quoted from earlier work in patent US20260158011A1 (Achieve Life Sciences, Inc., priority 2023, published 2026).

Where two headings read alike, the source gives them in different places.

Data set [1] has as its system smokers. The settings on record: Cochrane, Chantix (n > 7000); cited from earlier work.
For data set [2], the system named is smokers. As to conditions: cited from earlier work.
The target in data set [3] is neuronal alpha4, beta2 (α4β2) receptors (Homo sapiens, UniProt P17787+P43681). The settings on record: background studies; cited from earlier work.
Chain of neuronal alpha4, beta2 (α4β2) receptors (P43681 29-627 limits assumed): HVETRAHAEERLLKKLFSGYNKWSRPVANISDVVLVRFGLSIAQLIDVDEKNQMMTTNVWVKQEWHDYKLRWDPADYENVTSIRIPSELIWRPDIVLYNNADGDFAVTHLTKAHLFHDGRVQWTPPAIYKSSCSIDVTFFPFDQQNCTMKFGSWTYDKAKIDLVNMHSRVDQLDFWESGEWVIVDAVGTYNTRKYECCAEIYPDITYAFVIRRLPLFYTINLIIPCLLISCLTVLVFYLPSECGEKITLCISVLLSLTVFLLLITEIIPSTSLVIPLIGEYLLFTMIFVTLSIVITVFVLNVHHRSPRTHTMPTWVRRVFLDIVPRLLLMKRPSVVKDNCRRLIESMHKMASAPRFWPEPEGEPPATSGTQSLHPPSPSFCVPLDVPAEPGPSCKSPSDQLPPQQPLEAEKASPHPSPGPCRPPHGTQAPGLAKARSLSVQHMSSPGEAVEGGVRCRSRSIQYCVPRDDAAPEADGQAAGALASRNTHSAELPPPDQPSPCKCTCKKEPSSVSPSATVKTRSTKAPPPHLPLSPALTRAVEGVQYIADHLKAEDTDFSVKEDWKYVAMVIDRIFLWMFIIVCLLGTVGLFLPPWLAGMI
Chain of neuronal alpha4, beta2 (α4β2) receptors (P17787 26-502): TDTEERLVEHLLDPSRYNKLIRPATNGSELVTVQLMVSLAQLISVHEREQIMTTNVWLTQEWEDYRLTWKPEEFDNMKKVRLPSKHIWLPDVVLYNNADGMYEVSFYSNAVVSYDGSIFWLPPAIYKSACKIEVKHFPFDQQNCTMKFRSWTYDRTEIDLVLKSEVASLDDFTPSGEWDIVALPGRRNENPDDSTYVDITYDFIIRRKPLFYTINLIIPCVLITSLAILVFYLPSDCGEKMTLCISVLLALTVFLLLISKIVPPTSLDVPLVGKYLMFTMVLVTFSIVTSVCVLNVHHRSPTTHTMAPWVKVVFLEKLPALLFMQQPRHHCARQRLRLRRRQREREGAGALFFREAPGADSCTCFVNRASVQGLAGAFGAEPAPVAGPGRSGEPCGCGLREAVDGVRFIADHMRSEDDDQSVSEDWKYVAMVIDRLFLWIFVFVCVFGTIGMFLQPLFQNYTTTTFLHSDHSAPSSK

As for `c1cnc2cc3c(cc2n1)[C@@H]1CNC[C@H]3C1` [Chantix ®, varenicline], in the data set on smokers [1], the “Serious AEs” value is 3.3%, the “TEAE: Abnormal dreams” value was 12.5%, the “TEAE: Headache” value was 12.7% and the “TEAE: Insomnia” value is 14.2%. Further, the “TEAE: Nausea” value with smokers [1] is given as 27.8%. Also, in the data set with smokers [2] (Chantix 12 weeks (EAGLES), versus placebo), the “OR at End of Treatment” value is recorded as 4.0. Moreover, in the data set on smokers [2] (Chantix 12 weeks (EAGLES)), the “Drug-placebo difference in quit rate at End of Treatment” value is given as 24.3% and the “Quit Rate at End of Treatment” value is 38.0%. Moreover, in the data set with smokers [2] (Chantix (EAGLES), versus placebo), the “OR at 4 Weeks Off Treatment” value is listed as 3.5. Also, in the data set on smokers [2] (Chantix (EAGLES)), the “Drug-placebo difference in quit rate at 4 Weeks Off Treatment” value is on record as 20.7% and the “Quit Rate at 4 Weeks Off Treatment” value is reported as 33.2%. The “OR at 4 Weeks Treatment” value with smokers [2] (Chantix (ONCKEN), versus placebo) was 3.1. Further, in the data set on smokers [2] (Chantix (ONCKEN)), the “Drug-placebo difference in quit rate at 4 Weeks Treatment” value is listed as 21.4% and the “Quit Rate at 4 Weeks Treatment” value is on record as 37.7%. Also, the “Quit rate at 24 weeks” value in the data set with smokers [2] (EAGLES, U.S. patients (N=1065)) is reported as 16%. In the data set with smokers [2] (EAGLES, all regions), the “Overall quit rate at 24 weeks” value is given as 22%. For the same compound, in the data set with smokers [2] (EAGLES, region Non-U.S.), the “CAR weeks 9-24 % (95% CI)” value is 27.9 (25.2-30.8) % (95% CI) and the “Versus placebo OR (95% CI), CAR weeks 9-24” value is reported as 2.80 (2.20-3.55). Also, in the data set with smokers [2] (EAGLES, region U.S.), the “CAR weeks 9-24 % (95% CI)” value was 16.1 (14.0-18.4) % (95% CI) and the “Versus placebo OR (95% CI), CAR weeks 9-24” value is on record as 2.66 (1.99-3.55).
As for `CN1CCCC1c1cccnc1` (stereo not drawn) [nicotine, reference compound], the “Binding to α4β2 receptors” value in data set [3] was “bind strongly and preferentially”.
